The values below come from patent publication US8753857B2, “Crystal structure of the pro form of a matrix metalloproteinase and an allosteric processing inhibitor” (Janssen Pharmaceutica N.V., priority 2011, dated 2014).

In test [1] the test system is rats with SCW-induced arthritis. The test can be described thus: Efficacy in rats with SCW-induced arthritis (ankle thickness, clinical scores). In kind it is in vivo, rat. Particulars: 5, 20, 50 mg/kg BID oral, Day 18-26. The method, then: SCW PG-PS 10S (Beckton Dickinson Cat#210866) suspended in saline was vortexed for 30 seconds and sonicated for 3 min with a probe type sonicator prior to injection. Female Lewis (LEW/N) rats, 5-6 weeks of age (80-100 g) were injected (i.p.) with SCW PG-PS (15 μg of rhamnose/gram BW) in the lower left quadrant of the abdomen using a 1 mL syringe fitted with a 23-gauge needle. Control (disease-free) rats were treated in a similar manner with sterile saline. Control rats were sacrificed on day 5 and groups of SCW-injected rats were sacrificed on day 5 when acute inflammation was maximal or on day 18 when chronic inflammation was established.
To induce arthritis, Female Lewis (LEW/N) rats, 5-6 weeks of age (80-100 g) were injected (i.p.) with SCW PG-PS as described above. Eighteen days later, arthritis was well established. Calipers were used to measure the width (anterior to posterior surface) of the left and right hind ankles of each rat. Each ankle was measured 3 times and averaged, and treatment groups were randomized based on ankle thickness (Table 6). Commencing on day 18, randomized groups of arthritic rats (n=5 rats/group) received vehicle or 5, 20, or 50 mg/kg Example 2 BID by oral gavage. Vehicle consisted of an aqueous mixture containing 2% (v:v) N-methylpyrrolidone, 5% (v:v) glycerine, and 20% (w:v) captisol. Treatment continued daily through the morning of day 26. […]

A further test has as its target T1, proMMP9 (Homo sapiens, UniProt P14780).
T1 construct: endogenous in cells; host or cells: HFL-1 (ATCC CCL-153), TNFα-stimulated, with 30 nM human neutrophil elastase added
The test can be described thus: Activation of proMMP9 by human fetal lung fibroblast (HFL-1) cultures (Western blot). Particulars: 3.3 μM, 30 nM elastase, 72 hrs, mAb-L51/82. In kind it is cell-based. The method, then:
Example 2 was assessed additionally for ability to block the maturation of proMMP9 to active MMP9 in cultures of human fetal lung fibroblasts (HFL-1, American Type Culture Collection #CCL-153). Unlike rat synoviocytes, HFL-1 cells were unable to process proMMP9 to the active form without addition of neutrophil elastase. […] Rather, the function of elastase in this assay may be to inactivate tissue inhibitors of matrix metalloproteinases (TIMPs) that repress endogenous pathways of MMP9 activation (Skold, Liu et al. 1999).
HLF-1 were maintained in monolayer culture in DMEM with 10% FCS and were used between passage numbers 5-15. HLF-1 were embedded in collagen gels as described for rat SCW synoviocytes (vida supra). Half mL gels containing 0.4 million cells were dislodged into wells of 12 well Costar plates containing 1 mL/well of DMEM adjusted to contain 0.05% BSA and 100 ng/mL human TNFα (R&D Systems Cat #210-TA/CF). After overnight culture (37° C. and 5% CO2) wells were adjusted to contain an additional 0.5 mL of DMEM containing 0.05% BSA and with or without 13.2 μM Example 2 (final concentration was 3.3 μM Example 2). Next, cultures were adjusted to contain 30 nM human elastase (Innovative Research). The plates were cultured an additional 72 hrs, at which time MMP9 secreted into the conditioned media was bound to gelatin-sepharose and evaluated by Western blot analysis as described for the rat synoviocyte cultures (vida supra). mAb-51/82 detected three forms of MMP9 in HFL-1 cultures.
A second experiment was performed to determine if the 80 kD form was mature active MMP9 and to determine the potency of Example 2 as an inhibitor of MMP9 maturation in this assay. HFL-1 cells embedded in collagen gels were cultured as described above in the presence of TNFα overnight and the cultures were then adjusted to contain 30 nM elastase and graded concentrations of Example 2 for an additional 72 hrs at which time MMP9 secreted into the conditioned media was bound to gelatin-sepharose and evaluated by Western blot analysis for active MMP9 using pAb-1246 raised against the N-terminal neoepitope of active MMP9 (Table 5). In the absence of Example 2, pAb-1246 readily detected MMP9 with an electrophoretic mobility of approximately 80 kD. […] Inhibition occurred over a dose range with an IC50 of approximately 0.3 μM Example 2.

Each structure is given as a SMILES string.

T1 sequence (P14780 20-707 limits assumed): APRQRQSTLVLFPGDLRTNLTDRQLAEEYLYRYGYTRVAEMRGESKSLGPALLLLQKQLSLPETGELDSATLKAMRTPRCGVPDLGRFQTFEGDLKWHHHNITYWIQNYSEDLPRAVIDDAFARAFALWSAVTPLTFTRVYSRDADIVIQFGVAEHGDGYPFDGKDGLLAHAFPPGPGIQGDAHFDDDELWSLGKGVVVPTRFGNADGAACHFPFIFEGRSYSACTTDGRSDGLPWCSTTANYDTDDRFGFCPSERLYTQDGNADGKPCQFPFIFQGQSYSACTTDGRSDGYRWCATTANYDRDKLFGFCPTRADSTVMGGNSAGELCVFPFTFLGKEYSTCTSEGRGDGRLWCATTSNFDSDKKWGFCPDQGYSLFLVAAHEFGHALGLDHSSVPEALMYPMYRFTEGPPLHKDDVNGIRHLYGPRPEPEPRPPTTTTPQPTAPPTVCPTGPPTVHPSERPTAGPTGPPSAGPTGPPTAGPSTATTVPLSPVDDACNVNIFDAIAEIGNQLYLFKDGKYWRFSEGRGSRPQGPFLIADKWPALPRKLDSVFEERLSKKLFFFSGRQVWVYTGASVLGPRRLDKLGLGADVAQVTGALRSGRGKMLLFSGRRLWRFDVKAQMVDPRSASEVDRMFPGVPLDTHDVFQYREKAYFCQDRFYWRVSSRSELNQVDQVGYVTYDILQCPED

Consider `Cc1nc(C)c(-c2csc(Nc3cc(S(N)(=O)=O)ccc3OC(C)C)n2)s1` [Example 2, 3-(2′,4′-Dimethyl-[4,5′]bithiazolyl-2-ylamino)-4-isopropoxy-benzenesulfonamide.HBr], for which, in test [1], the “Effect on ankle thickness measurements” value was “dose-dependent decrease” and the “Effect on clinical score measurements” value is “dose dependent decrease”. For the same molecule, at proMMP9, the “Percent of total signal 80 kD” value turned out to be 7%, the “Percent of total signal 86 kD” value is 47%, the “Percent of total signal 100 kD” value is 46% and the “Signal Total” value amounted to 91346 INT * mm^2.
